The values that follow come from patent publication US8080654B2, “Macrocyclic quinoxaline compounds as HCV NS3 protease inhibitors” (Insituto di Ricerche di Biologia Molecolare P. Angeletti SpA, priority 2008, dated 2011).

One experiment concerns the target NS 3/4A 1b (Hepatitis C virus genotype 1b, UniProt P26663). The experiment in a line: biochemical. Conditions: genotype 1b enzyme; read-out: NS 3/4A Inhibitory Activity (Ki) lb. The protocol:
A NS3 protease assay can be performed, for example, in a final volume of 100 μl assay buffer containing 50 mM HEPES, pH 7.5, 150 mM NaCl, 15% glycerol, 0.15% TRITON X-100, 10 mM DTT, and 0.1% PEG 8000. NS3 and NS4A protease is pre-incubated with various concentrations of inhibitors in DMSO for 30 minutes. The reaction is initiated by adding the TRF peptide substrate (final concentration 100 nM). NS3 mediated hydrolysis of the substrate is quenched after 1 hour at room temperature with 100 μl of 500 mM MES, pH 5.5. […] IC50 values are derived using a standard four-parameter fit to the data. […] See P. Gallinari et al., 38 BIOCHEM. […] BIOCHEM. […] V. General Compound Production
(§1) NS 3/4A Inhibitory Activity^1 (Ki): NS 3/4A Inhibitory Activity was determined as described in Section IV.

Another experiment deals with HCV replicon gt1b. The experiment can be described thus: HCV replicon activity, genotype 1b. Format: cell-based. Conditions: Hepatitis C virus; genotype 1b replicon; 50% viral replication suppression; read-out: Replicon Activity EC50 gtlb. Background: In antiviral work, replicon cells carry a viral genome segment that copies itself.
The target in another experiment is 1b mutant enzyme D168T (Hepatitis C virus genotype 1b, UniProt P26663, D1194T). The experiment can be described thus: NS3/4A TRF enzyme assay, 1b mutant D168T. The format is biochemical, hepatitis C virus (HCV). The protocol: (§2) A NS3 protease assay can be performed, for example, in a final volume of 100 μl assay buffer containing 50 mM HEPES, pH 7.5, 150 mM NaCl, 15% glycerol, 0.15% TRITON X-100, 10 mM DTT, and 0.1% PEG 8000. NS3 and NS4A protease is pre-incubated with various concentrations of inhibitors in DMSO for 30 minutes. The reaction is initiated by adding the TRF peptide substrate (final concentration 100 nM). NS3 mediated hydrolysis of the substrate is quenched after 1 hour at room temperature with 100 μl of 500 mM MES, pH 5.5. […] Testing concentrations of different enzyme forms are selected to result in a signal to background ratio (S/B) of 10-30. IC50 values are derived using a standard four-parameter fit to the data. Ki values are derived from IC50 values using the following formula, IC50=Ki(1+[S]/KM), Eqn (1), where [S] is the concentration of substrate peptide in the reaction and KM is the Michaelis constant. See P. Gallinari et al., 38 BIOCHEM. […] BIOCHEM. […] V. General Compound Production
as §1

The target of another experiment is 1b mutant enzyme D168A (Hepatitis C virus genotype 1b, UniProt P26663, D1194A). The experiment can be described thus: NS3/4A TRF enzyme assay, 1b mutant D168A. Format: biochemical, hepatitis C virus (HCV). The protocol: as §2, §1
The target in a further experiment is 1b mutant enzyme D168E (Hepatitis C virus genotype 1b, UniProt P26663, D1194E). The experiment can be described thus: NS3/4A TRF enzyme assay, 1b mutant D168E. The format is biochemical, hepatitis C virus (HCV). The protocol:
as §2, §1

For another experiment, the target named is 1b mutant enzyme D168G (Hepatitis C virus genotype 1b, UniProt P26663, D1194G). The experiment can be described thus: NS3/4A TRF enzyme assay, 1b mutant D168G. Format: biochemical, hepatitis C virus (HCV). The protocol:
as §2, §1

In the next experiment the target is 1b mutant enzyme D168V (Hepatitis C virus genotype 1b, UniProt P26663, D1194V). The experiment in a line: NS3/4A TRF enzyme assay, 1b mutant D168V. The format is biochemical, hepatitis C virus (HCV). As for the experimental part:
as §2, §1

The target of a further experiment is 1b mutant enzyme D168Y (Hepatitis C virus genotype 1b, UniProt P26663, D1194Y). The experiment can be described thus: NS3/4A TRF enzyme assay, 1b mutant D168Y. The format is biochemical, hepatitis C virus (HCV). The protocol:
as §2, §1

For the next experiment, the target named is 1b mutant enzyme D168Q (Hepatitis C virus genotype 1b, UniProt P26663, D1194Q). The experiment can be described thus: NS3/4A TRF enzyme assay, 1b mutant D168Q. Format: biochemical, hepatitis C virus (HCV). The protocol: as §2, §1
The target in another experiment is 1b mutant enzyme A156S (Hepatitis C virus genotype 1b, UniProt P26663, A1182S). The experiment can be described thus: NS3/4A TRF enzyme assay, 1b mutant A156S. The format is biochemical, hepatitis C virus (HCV). As for the experimental part:
as §2, §1

A further experiment addresses 1b mutant enzyme A156T (Hepatitis C virus genotype 1b, UniProt P26663, A1182T). The experiment in a line: NS3/4A TRF enzyme assay, 1b mutant A156T. Format: biochemical, hepatitis C virus (HCV). As for the experimental part: as §2, §1
Another experiment addresses 1b mutant enzyme A156V (Hepatitis C virus genotype 1b, UniProt P26663, A1182V). The experiment in a line: NS3/4A TRF enzyme assay, 1b mutant A156V. Format: biochemical, hepatitis C virus (HCV). As for the experimental part:
as §2, §1

For another experiment, the target named is 1b mutant enzyme R155K (Hepatitis C virus genotype 1b, UniProt P26663, R1181K). The experiment can be described thus: NS3/4A TRF enzyme assay, 1b mutant R155K. The format is biochemical, hepatitis C virus (HCV). The protocol: as §2, §1
For another experiment, the target named is 1b mutant enzyme R155Q (Hepatitis C virus genotype 1b, UniProt P26663, R1181Q). The experiment can be described thus: NS3/4A TRF enzyme assay, 1b mutant R155Q. Format: biochemical, hepatitis C virus (HCV). As for the experimental part: as §2, §1
For a further experiment, the target named is 1b mutant enzyme R155G (Hepatitis C virus genotype 1b, UniProt P26663, R1181G). The experiment in a line: NS3/4A TRF enzyme assay, 1b mutant R155G. The format is biochemical, hepatitis C virus (HCV). The protocol:
as §2, §1

The target in a further experiment is 1b mutant enzyme R155N (Hepatitis C virus genotype 1b, UniProt P26663, R1181N). The experiment in a line: NS3/4A TRF enzyme assay, 1b mutant R155N. The format is biochemical, hepatitis C virus (HCV). The protocol: as §2, §1

Turning to `C=C[C@@H]1C[C@]1(NC(=O)[C@@H]1C[C@@H]2CN1C(=O)[C@H](C(C)(C)C)NC(=O)O[C@@H]1CCC[C@H]1CCCCCc1nc3ccc(OC)cc3nc1O2)C(=O)NS(=O)(=O)C1CC1` [WO 2008/057209 Example 118], the Ki at NS 3/4A 1b was below 0.016 nM; on 1b mutant enzyme D168T it was 0.78 nM; at 1b mutant enzyme D168A, 0.86 nM; on 1b mutant enzyme D168E it was 0.12 nM; at 1b mutant enzyme D168G it was 0.45 nM; on 1b mutant enzyme D168V, 0.65 nM. In addition, the Ki at 1b mutant enzyme D168Y was determined as 1.5 nM; at 1b mutant enzyme D168Q, 0.42 nM; at 1b mutant enzyme A156S it was 0.1 nM; on 1b mutant enzyme A156T it was 3.4 nM; at 1b mutant enzyme A156V it was 15 nM; at 1b mutant enzyme R155K, 0.08 nM. Moreover, the Ki worked out at 1.9 nM at 1b mutant enzyme R155Q, 2.3 nM at 1b mutant enzyme R155G and 0.56 nM on 1b mutant enzyme R155N. In addition, the EC50 in the experiment with HCV replicon gt1b was 3 nM.

A word on the EC50: it is the midpoint of the concentration-response curve.
